Test results from patent US6818620B2, “Synthetic compounds and compositions with enhanced cell binding” (The Regents of the University of California, priority 1991, dated 2004).
Entries after “also recorded” stand apart in the source; their conditions may differ. No end group written: not given here.

Tests used:
[1] = tested on: binding of cells to collagen; experiment: Inhibition of cell binding (attachment) to collagen substrates by peptides added to the medium (Example 2); format: cell-based, human; conditions: for % Inhibition of Cell Attachment / % of Maximal Cell Attachment: collagen substrates; for effect on the binding of cells to collagen (in words): equimolar concentrations of several peptides
Procedure: All media and supplies for tissue culture were obtained from University of California San Francisco Tissue Culture Facility. Cycloheximide was purchased from Sigma Biochemicals, St. Louis, Mo. Rat tail tendon collagen was purified to homogeneity and characterized in our laboratory using published methods. Tissue culture dishes (35 mm diameter, Falcon Plastics) were coated with collagen dissolved in 0.01 N acetic acid to a concentration of 10 μg/ml. The dishes were allowed to air dry overnight under ultraviolet light to maintain sterility.
Primary cultures of fibroblast cells from 19-week fetal human dermis were obtained. The cultures were maintained in Eagles minimum essential medium with Earle's salts supplemented with 10% fetal bovine serum. All cells used were in the second passage and were obtained from confluent cultures. Prior to release and dispersion with trypsin, the cells were rinsed three times with phosphate buffered saline. The cell layers were exposed for two minutes to 0.05% trypsin, 0.02% NaEDTA in phosphate buffered saline, and rinsed with serum free medium.
Collagen related, but non-inventive peptides, (Pro-Pro-Gly)10 and (Pro-Hyp-Gly)10 (wherein Hyp is hydroxy-proline), were obtained from Peninsula Laboratory, Belmont, Calif. Polyproline was purchased from Sigma Biochemicals, St. Louis, Mo. Dynorphin 1-13 and human preangiotensinogen 1-14 were purchased from Bachem, Torrance, Calif. Three different fibronectin related peptide sequences were also obtained from Bachem and were used without further analysis.
The inventive peptide (SEQ ID NO:1) was synthesized as described in Example 1 and the same procedures and conditions of Example 1 were used herein.
In this experiment to examine the effect of various additives on binding, the additives were added in the medium containing the cells before being transferred to the dishes for the binding assay. It was observed that cell binding to collagen proceeds rapidly in the beginning of the experiment but then slows down after approximately 30 minutes and approximately 70-80% of the cell binding in the absence of a peptide occurs during this time. The effect of the peptide inhibitor on the initial rate of the binding reaction between cells and collagen was examined. The effects of various conditions on cell binding to collagen after 30 minutes were usually compounded.
All peptides used had small inhibitory effects on cell binding, although none reached the level of inhibition observed with the inventive peptide. […] Under the conditions of these experiments, polyproline and (PPG)10 exist as single chains in polyproline conformation whereas (P-Hyp-G)10 is a triple helix. The behavior of dynorphin 1-13 and preangio-tensinogen 1-14, peptides similar in size to the inventive peptide, on cell binding was also examined.

[2] = tested on: cells; experiment: Relative cell-binding activity of synthetic peptides (relative to the SEQ ID NO:1 peptide / P-15, or to collagen); format: cell-based; conditions: for Relative Cell-Binding Activity: relative to the inventive peptide illustrated in Examples 1 and 2 (SEQ ID NO:1)
Procedure: Several more synthetic peptides were prepared and tested for cell binding activity (relative to the SEQ ID NO:1 peptide) all of which have the β-bend feature and which have excellent cell binding activity.
The relative efficiencies of some synthetic peptides of this invention for cell-binding activity (relative to the inventive peptide illustrated in Examples 1 and 2) are set out in Table 4.

[3] = tested on: peripheral blood CD4 and CD8 lymphocytes; experiment: Inhibition of T-cell binding to collagen-coated dishes (Example 7); format: cell-based; conditions: rat tail type I collagen-coated dishes, serum free medium
Procedure: Cultured T-cells were incubated in collagen-coated dishes in serum free medium, in the presence and absence of inventive peptides. […] Inhibition was examined at several concentrations and times. Maximal inhibition by the peptides occurred at 30 minutes at 37 ? C at a concentration of 35 μM. Thus, the molecular site on type I collagen involved in the interaction with T-cells appears to be the same as involved in fibroblast binding.

[4] = tested on: fibroblast cells from 19-week fetal human dermis; experiment: Binding of fibroblast cells to collagen- or peptide-coated glass coverslips and dishes (Example 1); format: cell-based; conditions: for Concentration of Cells (Relative Binding of Cells After 15 Minutes): coverslips coated with 50 μl of 1 mg/ml solution, approximately 100,000 fibroblast cells
Procedure: All media and supplies for tissue culture were obtained from University of California San Francisco Tissue Culture Facility. Cycloheximide was purchased from Sigma Biochemicals, St. Louis, Mo. Rat tail tendon collagen was purified to homogeneity and characterized in our laboratory using published methods. Tissue culture dishes (35 mm diameter, Falcon Plastics) were coated with collagen dissolved in 0.01 N acetic acid to a concentration of 10 μg/ml. The dishes were allowed to air dry overnight under ultraviolet light to maintain sterility. Primary cultures of fibroblast cells from 19-week fetal human dermis were obtained. The cultures were maintained in Eagles minimum essential medium with Earle's salts supplemented with 10% fetal bovine serum. All cells used were in the second passage and were obtained from confluent cultures. Prior to release and dispersion with trypsin, the cells were rinsed three times with phosphate buffered saline. The cell layers were exposed for two minutes to 0.05% trypsin, 0.02% NaEDTA in phosphate buffered saline, and rinsed with serum free medium. Glass coverslips (12-15) were washed in a cleaning solution overnight then rinsed with large amounts of distilled water. The coverslips were then sterilized by drying between sheets of filter paper in an oven at high temperature. The coverslips were then placed in small culture dishes under sterile conditions. A solution of collagen in acetic acid (1 mg/ml) was prepared. Fifty microliters of solution was placed on each of four coverslips, which were then dried in air overnight. A solution of the peptide in acetic acid (1 mg/ml) was prepared. Four coverslips were treated with 50 μl of the solution and then dried as described above. Approximately 100,000 fibroblast cells were pipetted onto four control coverslips and dishes, four collagen coated coverslips and dishes, and four peptide coated coverslips and dishes. After 15 minutes, excess medium containing floating cells was removed from each dish. Fresh medium was added and the dishes were examined under a microscope to determine the extent of binding of cells to the respective coverslips. If the number of bound cells appeared to be different, an assay for DNA in the cells attached to each coverslip was performed. The cells were counted using a hemocytometer.

[5] = tested on: fibroblast cells; experiment: Fibroblast growth and migration into agarose gel containing peptide (Example 3); format: cell-based; conditions: 100 μg peptide in agarose gel (2 mg/ml); 100,000-200,000 fibroblast cells; 72 hours after plating
Procedure: Referring to FIGS. 1 and 2, a prior art agarose gel was prepared with an agarose concentration of 2 mg/ml and between 100,000-200,000 fibroblast cells were placed on the gel surface. The agarose gel had been prepared with a suitable fibroblast cell growth medium and the cells placed on the agarose gel were treated with growth medium; however, the cells died within 48 hours, as is illustrated by the FIG. 1 photograph. […] The fibroblast population continued to grow rapidly until cells filled the lattice of the gel.
Different concentrations of the inventive peptides in hydrogels were studied. […] Different types of cells appear to prefer different inventive peptide concentrations in hydrogels, probably due to differences in receptor densities, but in general about 100 μg/ml will be effective.

[6] = tested on: dermal fibroblasts; experiment: Induction of metalloproteinases and osteodifferentiation in dermal fibroblasts; format: cell-based
From the text: This activity is useful for resolving fibrosis. […] This is confirmed by the induction of the following genes: type I collagen, collagenase, alkaline phosphatase, osteonectin, transforming growth factor β (TGF-β), and osteogenin (bone morphogenic protein, […]). These studies confirm that the inventive peptides mimic the biological activity of collagen by binding to specific receptors and inducing biochemical processes characteristic of those induced by collagen itself.

[7] = tested on: cells; experiment: Relative cell-binding activity of synthetic peptides (relative to the SEQ ID NO:1 peptide / P-15, or to collagen); format: cell-based

In the case of Dynorphin 1-13 (YGGFLRRIRPKLK), the “% Inhibition of Cell Attachment” value ([1]; peptide 35 × 10^−6M) is reported as 19%, the “% of Maximal Cell Attachment” value ([1]; peptide 35 × 10^−6M) is reported as 81% and the “effect on the binding of cells to collagen (in words)” value (shortened to “effect on the binding of cells”) [1] is reported as “did not affect the binding of cells to collagen to the extent shown by the inventive peptide”.

FGIAGF [SEQ ID NO:5] was tested, and the “cell binding activity compared with P-15 region / SEQ ID NO:1 peptide (in words)” value [2] was “cell binding activity comparable to that of the peptides of SEQ ID NO: 1, 2, and 3” and the “Relative Cell-Binding Activity” value [2] was 87.

For QGIAGQ [SEQ ID NO:3], the “inhibition of interactions between T-cells and collagen” value [3] was “markedly inhibited”, the “cell binding activity compared with P-15 region / SEQ ID NO:1 peptide (in words)” value [2] was “as active, or more active, than a peptide having the entire P-15 region” and the “Relative Cell-Binding Activity” value [2] was 120.

With GTPGPQGIAGQRGVV [SEQ ID NO:1] the “increase in cell binding over collagen-coated dishes” value ([4]; 15 minutes) was 40%, the “increase in cell binding over the control (no collagen or peptide) dishes” value ([4]; 15 minutes) was 60% and the “Concentration of Cells (Relative Binding of Cells After 15 Minutes)” value ([4]; 15 minutes) was 11.05. The “potency relative to collagen in binding cells to glass or to polystyrene” value ([4]; various other similar studies) was “at least twice as potent as collagen”, the “% Inhibition of Cell Attachment” value ([1]; peptide 7.2 × 10^−6M) was 85% and the “% of Maximal Cell Attachment” value ([1]; peptide 7.2 × 10^−6M) was 15%. For the same substance, the “% Inhibition of Cell Attachment” value ([1]; peptide 36 × 10^−6M) was 88%, the “% of Maximal Cell Attachment” value ([1]; peptide 36 × 10^−6M) was 12% and the “effect on the binding of cells” value [1] was “potent inhibitor of the binding of cells to collagen”. The “fibroblast growth and migration into agarose gel” value [5] was “the cells not only grew, but actually migrated into the gel itself”, the induction of metalloproteinases ([6]; dermal fibroblasts) was “induces metalloproteinases” and the “osteodifferentiation (induction of type I collagen, collagenase, alkaline phosphatase, osteonectin, TGF-β, BMP-7 genes)” value ([6]; in composites with hydroxyapatite, non-osteoblastic (dermal) fibroblasts) was “causes osteodifferentiation”. For the same substance, the “inhibition of interactions between T-cells and collagen” value [3] was “markedly inhibited”.

With “Gly-Ile-Ala-Gly (FGIAGF; OTHER INFORMATION: synthetic peptide) [SEQ ID NO:9]” the “cell binding enhancement with respect to collagen (in words)” value [7] was “not significantly enhanced with respect to collagen”.

For Polyproline, the “% Inhibition of Cell Attachment” value ([1]; peptide 1.7 × 10^−6M) was 10%, the “% of Maximal Cell Attachment” value ([1]; peptide 1.7 × 10^−6M) was 90% and the “effect on the binding of cells” value [1] was “did not significantly affect the binding of cells”.

“Gly—Ile—Ala—Gly—Gln (GIAGQ; OTHER INFORMATION: synthetic peptide) [SEQ ID NO:6]” was tested, and the “cell-binding activity (relative to the SEQ ID NO:1 peptide)” value [2] was 70% and the “Relative Cell-Binding Activity” value [2] was 70.

With GPQGIAGQR [SEQ ID NO:2] the “inhibition of interactions between T-cells and collagen” value [3] was “markedly inhibited”, the “cell binding activity compared with P-15 region / SEQ ID NO:1 peptide (in words)” value [2] was “equally as active as the entire P-15 region” and the “Relative Cell-Binding Activity” value [2] was 100.

In the case of QGIAGQR [SEQ ID NO:4], the “Relative Cell-Binding Activity” value [2] is reported as 60.

“Gln-Gly-Ile-Ala-Gly (QGIAG; OTHER INFORMATION: synthetic peptide) [SEQ ID NO:8]” was tested, and the “cell binding enhancement with respect to collagen (in words)” value [7] was “slightly enhanced with respect to collagen, but not significantly enhanced; also recorded: not significantly enhanced with respect to collagen” and the “cell-binding activity (relative to the SEQ ID NO:1 peptide)” value [2] was 42%.

In the case of “human preangiotensinogen 1-14 (DRVYIHPFHLVIHN)”, the “% Inhibition of Cell Attachment” value ([1]; peptide 35 × 10^−6M) is reported as 12%, the “% of Maximal Cell Attachment” value ([1]; peptide 35 × 10^−6M) is reported as 88% and the “effect on the binding of cells” value [1] is reported as “did not affect the binding of cells to collagen to the extent shown by the inventive peptide”.

With QGAIAQ [SEQ ID NO:7] the “Relative Cell-Binding Activity” value [2] was 70.

In the case of “Collagen: Rat tail tendon collagen purified to homogeneity [reference compound]”, the “Concentration of Cells (Relative Binding of Cells After 15 Minutes)” value ([4]; 15 minutes) is reported as 8.59.
